# Reference: ChEMBL document CHEMBL3045488, “3D-QSAR STUDIES ON SUBSTITUTED DIHYDROPYRIDINES FOR THEIR 1A-ADRENERGIC RECEPTOR BINDING AFFINITY” (Med Chem Res, 2004)
# Target: T1, Alpha-1A adrenergic receptor (Homo sapiens, UniProt P35348)
# T1 sequence (P35348 whole entry): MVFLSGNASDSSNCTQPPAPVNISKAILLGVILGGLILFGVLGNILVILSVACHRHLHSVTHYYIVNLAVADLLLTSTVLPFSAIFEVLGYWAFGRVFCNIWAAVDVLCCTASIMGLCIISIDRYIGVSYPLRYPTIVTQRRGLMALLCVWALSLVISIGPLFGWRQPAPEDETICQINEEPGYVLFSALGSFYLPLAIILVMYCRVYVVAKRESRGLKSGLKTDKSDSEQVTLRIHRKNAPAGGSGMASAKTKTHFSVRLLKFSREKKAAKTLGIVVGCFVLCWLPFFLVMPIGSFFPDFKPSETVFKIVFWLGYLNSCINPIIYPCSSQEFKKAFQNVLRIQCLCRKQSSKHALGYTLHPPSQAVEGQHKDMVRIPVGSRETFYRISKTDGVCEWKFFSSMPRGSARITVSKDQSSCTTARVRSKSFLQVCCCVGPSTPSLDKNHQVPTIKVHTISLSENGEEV
# Experiment: Binding affinity to Homo sapiens (human) alpha1A adrenergic receptor
row,Compound,Ki [nM]
1,COC(=O)C1=C(C)NC(C)=C(C(=O)NCCCN2CCC(C(=O)OC)(c3ccccc3)CC2)C1c1ccc([N+](=O)[O-])cc1 (stereo unspecified),3.55
2,COC(=O)C1(c2ccccc2)CCN(CCCNC(=O)C2=C(C)NC(C)=C(C(=O)OCCO)C2c2ccc([N+](=O)[O-])cc2)CC1 (stereo unspecified),3.63
3,COC(=O)C1=C(C)NC(C)=C(C(=O)NCCCCN2CCC(c3ccccc3)(c3ccccc3)CC2)C1c1ccc([N+](=O)[O-])cc1 (racemic),14.8
4,COC(=O)C1=C(C)NC(C)=C(C(=O)NCCCN2CCC(c3ccccc3)CC2)C1c1ccc([N+](=O)[O-])cc1 (racemic),0.229
5,COC(=O)C1=C(C)NC(C)=C(C(=O)NCCCN2CCC(c3ccccc3)(c3ccccc3)CC2)C1c1ccc(C)cc1 (racemic),1.38
6,COC(=O)C1=C(C)NC(C)=C(C(=O)NCCCN2CCC(c3ccccc3)CC2)C1c1ccc(Cl)c([N+](=O)[O-])c1 (racemic),0.525
